Among the data in patent US4663450A, “Optically active cephalosporin analogs” (Kyowa Hakko Kogyo Co., Ltd., priority 1979, dated 1987) are MIC values, retold here.

Values after ≈ are worked out from the molar mass of the structure shown.

What all share (experiment): Heart Infusion Agar Dilution Method, antimicrobial activity
What all share (assay type): cell-based
(In general: In agar dilution the substance is mixed into plates at graded concentrations.)

Assay [1] concerns Pseudomonas aeruginosa #1.
Source text: (§1) Heart Infusion Agar Dilution Method (pH 7.2) is used.
as §1

Assay [2] concerns Staphylococcus aureus 209-P. The note with it: pH 7.2, Example 6. From the text:
(§2) Antimicrobial activities of the compound obtained in Example 1 are as follows. Heart Infusion Agar Dilution Method (pH 7.2) is used.
(§3) Antimicrobial activities of the compound obtained in Example 4 and 5 are as follows. Heart Infusion Agar Dilution Method (pH 7.2) is used. Cefazolin is used as a control.

In assay [3] the test system is Staphylococcus aureus Smith. Particulars: pH 7.2, Example 6.
Source text: as §2, §3

Assay [4] concerns Pseudomonas putida 264. Particulars: pH 7.2, Example 6.
Source text: as §2, §3

Assay [5] deals with Proteus rettgeri KY 4289. The note with it: Providencia rettgeri, KY4289; Proteus retteri KY 4289; pH 7.2; Example 6.
Source text: as §2, §3

Assay [6] has as its system Proteus vulgaris 6897. Particulars: pH 7.2, Example 6.
Source text: as §2, §3

Assay [7] relates to Escherichia coli GN2411-5. Particulars: pH 7.2, Example 6.
Source text: as §2, §3

Assay [8] has as its system Staphylococcus epidermidis. Particulars: pH 7.2, Example 6.
Source text: as §2, §3

In assay [9] the test system is Proteus morganii KY 4298. Particulars: Morganella morganii, KY4298, pH 7.2, Example 6.
Source text: as §2, §3

For assay [10], the system named is Pseudomonas aeruginosa 145. Particulars: pH 7.2, Example 6.
Source text: as §2, §3

The test system of assay [11] is Klebsiella pneumoniae Y-60. The note with it: Y60, pH 7.2, Example 6.
Source text: as §1, §1

The test system of assay [12] is Serratia marcescens T-26. The note with it: T26, pH 7.2, Example 6.
Source text: as §1, §1

Assay [13] relates to Serratia marcescens T-55. The note with it: T55, pH 7.2, Example 6.
Source text: as §1, §1

In assay [14] the test system is Escherichia coli NIHJC-2. The note with it: NIHJC2, pH 7.2, Example 6.
Source text: as §1, §1

In assay [15] the test system is Escherichia coli Juhl. Particulars: pH 7.2, Example 6.
Source text: as §1, §1

Assay [16] relates to Proteus mirabilis 1287. The note with it: pH 7.2, Example 6.
Source text: as §1, §1

Assay [17] relates to Klebsiella pneumoniae 8045. Particulars: pH 7.2, Example 6.
Source text: as §1, §1

Broadly, the MIC is the smallest concentration in the dilution series that meets the test's criterion for growth inhibition. A high value points to a less susceptible organism. For `CO/N=C(\C(=O)N[C@@H]1C(=O)N2C(C(=O)O)=C[C@@H](O)C[C@H]12)c1csc(N)n1` [A, (4S, 6R, 7S)-7-[2-(2-amino-4-thiazolyl)-2-syn-methoxyiminoacetamido]-4-hydroxy-1-azabicyclo[4,2,0] oct-2-en-8-on-2-carboxylic acid], inhibition of growth in assay [1] (pH 7.2) (MIC) required 0.73 µg/mL (≈ 1.91 µM).

As for `Cc1nnc(SCC2=C(C(=O)O)N3C(=O)[C@@H](NC(=O)Cn4cnnn4)[C@H]3SC2)s1` [Cefazolin, reference compound], the minimal inhibitory concentration (MIC) in [2] was determined as 0.05 µg/mL (≈ 0.11 µM); in assay [3], 0.2 µg/mL (≈ 0.44 µM); in assay [4], 50 µg/mL (≈ 110 µM); in [5] it was 12.5 µg/mL (≈ 27.5 µM); in assay [6] it was 50 µg/mL (≈ 110 µM).

Turning to `CC(C)(O/N=C(\C(=O)N[C@@H]1C(=O)N2C(C(=O)O)=C[C@@H](O)C[C@H]12)c1csc(N)n1)C(=O)O` [Example 4, (4S, 6R, 7S)-7-[2-(2-amino-4-thiazolyl)-2-syn-(2-carboxyprop-2-oxyimino)acetamido]-4-hydroxy-1-azabicyclo[4,2,0]oct-2-en-8-on-2-carboxylic acid], the MIC was 0.2 µg/mL (≈ 0.441 µM) in assay [7]; over 100 µg/mL in assay [8]; over 100 µg/mL in [2]; over 100 µg/mL in [3]; at most 0.01 µg/mL in [4]; 0.1 µg/mL (≈ 0.221 µM) in assay [9]. In addition, the MIC in assay [10] was 3.12 µg/mL (≈ 6.88 µM); in [5] it was at most 0.01 µg/mL; in assay [6], at most 0.01 µg/mL; in assay [1] (pH 7.2, Example 6) it was 0.78 µg/mL (≈ 1.72 µM); in [11], 0.2 µg/mL (≈ 0.441 µM); in [12], 0.78 µg/mL (≈ 1.72 µM). In addition, the MIC is 0.4 µg/mL (≈ 0.882 µM) in assay [13]; 0.78 µg/mL (≈ 1.72 µM) in [14]; 0.4 µg/mL (≈ 0.882 µM) in assay [15]; 0.02 µg/mL (≈ 0.0441 µM) in assay [16]; 0.2 µg/mL (≈ 0.441 µM) in assay [17].

Take `CO/N=C(\C(=O)N[C@@H]1C(=O)N2C(C(=O)O)=C[C@@H](O)C[C@H]12)c1nc(N)sc1Br` [Example 5, (4S, 6R, 7S)-7-[2-(2-amino-5-bromo-4-thiazolyl)-2-syn-methoxyiminoacetamido]-4-hydroxy-1-azabicyclo[4,2,0]oct-2-en-8-on-2-carboxylic acid]: the MIC was found to be 0.78 µg/mL (≈ 1.69 µM) in assay [7]; 100 µg/mL (≈ 217 µM) in [8]; 50 µg/mL (≈ 109 µM) in [2]; 50 µg/mL (≈ 109 µM) in assay [3]; 0.2 µg/mL (≈ 0.435 µM) in [4]; 1.56 µg/mL (≈ 3.39 µM) in [9]. Moreover, the MIC in [10] is 25 µg/mL (≈ 54.3 µM); in [5], at most 0.01 µg/mL; in [6], 0.2 µg/mL (≈ 0.435 µM); in assay [11], 1.56 µg/mL (≈ 3.39 µM); in assay [14], 3.12 µg/mL (≈ 6.78 µM); in [15], 3.12 µg/mL (≈ 6.78 µM). Also, the MIC in assay [16] worked out at 1.56 µg/mL (≈ 3.39 µM); in [17], 0.78 µg/mL (≈ 1.69 µM).
